Measurements published in paper PMC2999579 (Molecular imaging and biology : MIB : the official …, 2009).

Molecular target: integrin αvβ3 (Homo sapiens, UniProt P05106+P06756)
Assay: Competitive cell-binding assay with ^125I-echistatin on U87MG cells
Conditions: SD

IC50: 404 ± 38 nM
SMILES: CC(F)C(=O)NC[C@@H]1O[C@H](C(=O)NCCCC[C@@H]2NC(=O)[C@@H](Cc3ccccc3)NC(=O)[C@H](CC(=O)O)NC(=O)CNC(=O)[C@H](CCCNC(=N)N)NC2=O)[C@H](O)[C@H](O)[C@H]1O (stereo partly shown) [galacto-RGD, FP-SAA-c(RGDfK)]
